From PubChem BioAssay AID226 (DTP/NCI, 2004) come the findings set out here.

Each structure is given as a SMILES string. “And” between values parts separate entries of the source, which are not always exact repeats. Identical values can stand only once. Inconclusive results and toxic doses are left out.

For the assay, the system named is B6C3F1 mice, intracerebral ependymoblastoma, median survival T/C. Put plainly: NCI In Vivo Anticancer Drug Screen. Data for tumor model Ependymoblastoma (intracerebral) in B6C3F1 mice. The conditions noted are these: endpoint: median survival time, higher = longer survival. The method, then:
The antitumor activity of compounds was measured in mice bearing transplantable tumors. Survival or tumor size were measured and the results are expressed as the measurement made in the treated group (T) divided by the measurement made in the vehicle treated control group (C). The tumor model used in this assay is Ependymoblastoma (intracerebral) in B6C3F1 mice

The mark [1] stands for this setting: dose: 0.25 mg/kg/injection, schedule: Q01DX005 (ip), vehicle: saline.
Setting [2] is: dose: 16.0 mg/kg/injection, schedule: Q01DX005 (ip), vehicle: saline with Tween-80.
The mark [3] stands for this setting: dose: 12.5 mg/kg/injection, schedule: Q01DX005 (ip), vehicle: Klucel (hydroxypropylcellulose) (HPC).
Where [4] appears, read: dose: 25.0 mg/kg/injection, schedule: Q01DX005 (ip), vehicle: Klucel (hydroxypropylcellulose) (HPC).
Setting [5] is: dose: 50.0 mg/kg/injection, schedule: Q01DX005 (ip), vehicle: Klucel (hydroxypropylcellulose) (HPC).
The mark [6] stands for this setting: dose: 128.0 mg/kg/injection, schedule: Q01DX005 (ip), vehicle: saline with Tween-80.
Where [7] appears, read: dose: 8.0 mg/kg/injection, schedule: Q01DX005 (ip), vehicle: saline with Tween-80.
[8] abbreviates: dose: 32.0 mg/kg/injection, schedule: Q01DX005 (ip), vehicle: saline with Tween-80.

On to `OCC1OC(n2cnc3c2NC=NC[C@H]3O)CC1O` (some centres not stated), for which the T/C was 102 % of control (dose: 0.12 mg/kg/injection, schedule: Q#ADX018 (ip), vehicle: saline); 108 % of control and 113 % of control under setting [1]; 103 % of control (dose: 0.25 mg/kg/injection, schedule: Q#ADX018 (ip), vehicle: saline); 100 % of control and 103 % of control (dose: 0.5 mg/kg/injection, schedule: Q01DX005 (ip), vehicle: saline); 103 % of control and 116 % of control (dose: 0.5 mg/kg/injection, schedule: Q01DX009 (ip), vehicle: saline); 122 % of control (dose: 0.5 mg/kg/injection, schedule: Q#A X010 (ip), vehicle: saline). Also, the T/C reads like this: (dose: 1.0 mg/kg/injection, schedule: Q01DX009 (ip), vehicle: saline) 88 % of control; (dose: 2.0 mg/kg/injection, schedule: Q01DX009 (ip), vehicle: saline) 91 % of control.

On to `NC(=O)c1csc(C2OC(CO)C(O)C2O)n1` (configuration not stated), for which the T/C is 96 % of control (dose: 9.38 mg/kg/injection, schedule: Q01DX009 (ip), vehicle: saline); 107 % of control (dose: 18.8 mg/kg/injection, schedule: Q01DX009 (ip), vehicle: saline); 93 % of control and 110 % of control (dose: 37.5 mg/kg/injection, schedule: Q01DX005 (ip), vehicle: saline); 99 % of control and 110 % of control (dose: 37.5 mg/kg/injection, schedule: Q01DX009 (ip), vehicle: saline); 101 % of control and 107 % of control (dose: 75.0 mg/kg/injection, schedule: Q01DX005 (ip), vehicle: saline); 112 % of control and 121 % of control (dose: 75.0 mg/kg/injection, schedule: Q01DX009 (ip), vehicle: saline). Besides, the T/C (dose: 150.0 mg/kg/injection, schedule: Q01DX005 (ip), vehicle: saline) was 113 % of control and 116 % of control; the T/C (dose: 150.0 mg/kg/injection, schedule: Q01DX009 (ip), vehicle: saline) was 110 % of control and 119 % of control; the T/C (dose: 300.0 mg/kg/injection, schedule: Q01DX005 (ip), vehicle: saline) was 108 % of control and 114 % of control; the T/C (dose: 300.0 mg/kg/injection, schedule: Q01DX009 (ip), vehicle: saline) was 114 % of control; the T/C (dose: 600.0 mg/kg/injection, schedule: Q01DX005 (ip), vehicle: saline) is 101 % of control and 114 % of control; the T/C (dose: 600.0 mg/kg/injection, schedule: Q01DX009 (ip), vehicle: saline) is 123 % of control.

As for `S=c1nc[nH]c2nc[nH]c12`, the T/C (dose: 10.0 mg/kg/injection, schedule: Q01DX001 (ip), vehicle: Klucel (hydroxypropylcellulose) (HPC)) is 92 % of control and 99 % of control and 101 % of control; the T/C (dose: 20.0 mg/kg/injection, schedule: Q01DX001 (ip), vehicle: Klucel (hydroxypropylcellulose) (HPC)) was 98 % of control and 100 % of control and 107 % of control; the T/C (dose: 40.0 mg/kg/injection, schedule: Q01DX001 (ip), vehicle: Klucel (hydroxypropylcellulose) (HPC)) is 100 % of control and 103 % of control (2×); the T/C (dose: 80.0 mg/kg/injection, schedule: Q01DX001 (ip), vehicle: Klucel (hydroxypropylcellulose) (HPC)) was 95 % of control and 103 % of control and 107 % of control; the T/C (dose: 160.0 mg/kg/injection, schedule: Q01DX001 (ip), vehicle: Klucel (hydroxypropylcellulose) (HPC)) is 100 % of control and 101 % of control and 116 % of control.

`CC1CCC(NC(=O)N(CCCl)N=O)CC1` (configuration not stated): the T/C by setting is: (dose: 0.5 mg/kg/injection, schedule: Q01DX009 (ip), vehicle: Klucel (hydroxypropylcellulose) (HPC)) 108 % of control; (dose: 1.0 mg/kg/injection, schedule: Q01DX005 (ip), vehicle: other) 110 % of control; (dose: 1.0 mg/kg/injection, schedule: Q01DX009 (ip), vehicle: Klucel (hydroxypropylcellulose) (HPC)) 106 % of control; (dose: 2.0 mg/kg/injection, schedule: Q01DX005 (ip), vehicle: other) 160 % of control; (dose: 2.0 mg/kg/injection, schedule: Q01DX005 (ip), vehicle: saline) 102 % of control; (dose: 2.0 mg/kg/injection, schedule: Q01DX009 (ip), vehicle: Klucel (hydroxypropylcellulose) (HPC)) 112 % of control. Also, the T/C is 119 % of control (dose: 4.0 mg/kg/injection, schedule: Q01DX005 (ip), vehicle: other); 108 % of control (dose: 4.0 mg/kg/injection, schedule: Q01DX005 (ip), vehicle: saline); 118 % of control (dose: 6.25 mg/kg/injection, schedule: Q01DX001 (ip), vehicle: saline + alcohol); 160 % of control (dose: 8.0 mg/kg/injection, schedule: Q01DX005 (ip), vehicle: other); 104 % of control (dose: 8.3 mg/kg/injection, schedule: Q01DX001 (ip), vehicle: DMSO); 108 % of control (dose: 13.8 mg/kg/injection, schedule: Q01DX001 (ip), vehicle: DMSO). In addition, the T/C is, setting by setting: (dose: 16.0 mg/kg/injection, schedule: Q01DX001 (ip), vehicle: other) 124 % of control; (dose: 16.0 mg/kg/injection, schedule: Q01DX005 (ip), vehicle: other) 300 % of control; (dose: 23.0 mg/kg/injection, schedule: Q01DX001 (ip), vehicle: DMSO) 122 % of control; (dose: 25.0 mg/kg/injection, schedule: Q01DX001 (ip), vehicle: saline + alcohol) 182 % of control; (dose: 38.4 mg/kg/injection, schedule: Q01DX001 (ip), vehicle: DMSO) 112 % of control; (dose: 50.0 mg/kg/injection, schedule: Q01DX001 (ip), vehicle: saline + alcohol) 235 % of control. The T/C reads like this: (dose: 64.0 mg/kg/injection, schedule: Q01DX001 (ip), vehicle: DMSO) 118 % of control; (dose: 64.0 mg/kg/injection, schedule: Q01DX001 (ip), vehicle: other) 191 % of control; (dose: 128.0 mg/kg/injection, schedule: Q01DX001 (ip), vehicle: other) 204 % of control.

With `CN(N=O)C(=O)Nc1c[nH]c(=O)[nH]c1=O`, the T/C under setting [2] is 114 % of control.

On to `CN(C)/N=N/c1nc[nH]c1C(N)=O`, for which the T/C (dose: 3.12 mg/kg/injection, schedule: Q01DX005 (ip), vehicle: saline with Tween-80) is 120 % of control; the T/C (dose: 6.25 mg/kg/injection, schedule: Q01DX005 (ip), vehicle: saline with Tween-80) is 114 % of control; the T/C under setting [3] was 115 % of control; the T/C under setting [2] is 111 % of control; the T/C under setting [4] was 114 % of control; the T/C under setting [5] is 120 % of control. Also, the T/C reads like this: (dose: 100.0 mg/kg/injection, schedule: Q01DX005 (ip), vehicle: saline with Tween-80) 156 % of control; under setting [6], 155 % of control.

As to `NC(=O)c1ncn(C2OC(CO)C(O)C2O)c1O` (configuration not stated), the T/C was 92 % of control under setting [4]; 101 % of control and 115 % of control under setting [5]; 96 % of control and 101 % of control (dose: 100.0 mg/kg/injection, schedule: Q01DX005 (ip), vehicle: Klucel (hydroxypropylcellulose) (HPC)); 105 % of control and 115 % of control (dose: 200.0 mg/kg/injection, schedule: Q01DX005 (ip), vehicle: Klucel (hydroxypropylcellulose) (HPC)); 111 % of control (dose: 400.0 mg/kg/injection, schedule: Q01DX005 (ip), vehicle: Klucel (hydroxypropylcellulose) (HPC)).

Turning to `CCC(=O)OCC1OC(n2cnc3c(=S)nc(N)[nH]c32)C(OC(=O)CC)C1OC(=O)CC` (configuration not stated), the T/C is 104 % of control (dose: 3.12 mg/kg/injection, schedule: Q01DX005 (ip), vehicle: Klucel (hydroxypropylcellulose) (HPC)); 110 % of control (dose: 6.25 mg/kg/injection, schedule: Q01DX005 (ip), vehicle: Klucel (hydroxypropylcellulose) (HPC)); 121 % of control under setting [3]; 120 % of control under setting [4].

Take `CC1=C(/C=C/C(C)=C/C=C/C(C)=C/C(=O)O)C(C)(C)CCC1`: the T/C is 99 % of control under setting [7]; 119 % of control under setting [2]; 115 % of control under setting [8]; 118 % of control (dose: 64.0 mg/kg/injection, schedule: Q01DX005 (ip), vehicle: saline with Tween-80); 109 % of control under setting [6].

Regarding `C1CN1c1nc(N2CC2)nc(N2CC2)n1`, the T/C reads like this: (dose: 0.06 mg/kg/injection, schedule: Q01DX005 (ip), vehicle: saline) 110 % of control; (dose: 0.13 mg/kg/injection, schedule: Q01DX005 (ip), vehicle: saline) 106 % of control and 119 % of control; under setting [1], 115 % of control and 124 % of control; (dose: 1.0 mg/kg/injection, schedule: Q01DX005 (ip), vehicle: saline) 189 % of control and 238 % of control.

Consider `COC(=O)C(Cc1ccc(N(CCCl)CCCl)cc1)N=NNc1nc[nH]c1C(N)=O` (configuration not stated), for which the T/C runs as follows: (dose: 4.0 mg/kg/injection, schedule: Q01DX005 (ip), vehicle: saline with Tween-80) 107 % of control; under setting [7], 101 % of control and 112 % of control; under setting [2], 104 % of control and 118 % of control; under setting [8], 123 % of control.
